Results on 10 molecules are retold here after patent publication US10139420B2, “Methods for treating vaso-occlusive crisis using non-modified annexin V” (ISNERM (Institut National de la Sante et de la Recherche …, priority 2011, dated 2018).

Assay [1] concerns SV40-transformed mouse lymph node endothelial cells (SVEC4-10). Description: Endothelial ROS production (H2DFF-DA assay). Format: cell-based. As for the experimental part:
SV40-transformed mouse lymph node endothelial cells (SVEC4-10 from ATCC) were obtained from LGC Promochem, France and grown in Dulbecco's Modified Eagle Medium (DMEM) supplemented with 20% neonatal calf serum (NCS; Dominique Dutscher) in 24 well plaques at 37° C. with 5% CO2. Confluent SVEC monolayers in 96 well plates were incubated with 25 MP/μl for up to 2 h. To determine ROS production, 5-(6-)Carboxy-2′,7′-difluorodihydrofluorescein diacetate (H2DFF-DA; 10 μM), was supplemented to the medium for the last 30 minutes, and fluorescence was read in an automated fluorescence plate reader. For erythrocyte adhesion experiments, MP-primed SVEC monolayers were washed and incubated with RBC suspensions in DMEM (1.10^6 RBC/ml). Supernatant cells were discarded after 30 min, and adherent cells were counted by phase contrast microscopy in 5 random fields per well (400×). All conditions were tested 3 to 6 times, in triplicates. In cell cycle analysis, SVEC were cultured up to 70% confluency, washed and placed in DMEM with 0.05% NCS with or without RBC MP. After 16 hours, SVEC were trypsinized, fixed overnight in ice-cold 70% ethanol-H20, and incubated in 0.05% Triton X100, 100 μg/ml RNase A plus 50 μg/ml propidium iodide for 1 h in the dark. Total DNA content was determined by FACS. DNA profiles were divided as sub-G1 (apoptosis), G0/G1 (resting) and G2/M (proliferation) phases of the cell cycle. Data shown is the mean percentage of cells in each phase, in 3 to 6 independent experiments.

The next assay deals with SAD mice. Description: Circulating PS+ MP in platelet-free plasma by FACS (annexin-V labeling), SAD mice. Format: in vivo, mouse. The following applies: injected to mice, compared with whole TSP1. As for the experimental part: We characterized the induction of VOC in SAD transgenic mice (18, 19) according to our previously published method, in response to the intravenous administration of TSP1 (1 mg/kg), TSP1-derived peptides 4N1-1 or 4N1-2, or purified erythrocyte MP. Briefly, mice were anesthetized with isoflurane and monitored to prevent any cardiorespiratory depression. Mice were shaved and placed in the decubitus position on a heating blanket (38° C.). We used a Vivid 7 echograph (GE Medical Systems®, Horten, Norway) equipped with a 12-MHz linear transducer (12 L). […] A pulsed Doppler spectrum was recorded and peak systolic, end-diastolic and time-average mean BFV were measured in the renal artery, with Doppler beam angle correction. To calculate cardiac output, spatial flow profiles were analyzed in parasternal long-axis B-mode images of the pulmonary artery and BFV were measured as above. […] Circulating MP were quantified by FACS.
Netherlands) in the absence or presence of TSP1 (25 μg/ml), or TSP1-derived peptides 4N1-1 or 4N1-2 (25 μM). […] Erythrocytes were immediately separated and supernatant PS^+ MP quantified by FACS. […] MP concentrations were determined as previously described (20). […] MP were analyzed on a Coulter EPICS XL flow cytometer (Beckman Coulter). […] MP-size events were analyzed in FL/FSC fluorescence dot plots to determine annexin-V labeling. […]

In assay [2] the test system is wild type mouse erythrocytes. Kind of assay: Echinocyte conversion and MP shedding by isolated erythrocytes (LORCA ektacytometer, microscopy, FACS), wild type. Format: cell-based. The following applies: for increase in MP shedding in wild type erythrocytes: peptides 25 μM, versus control peptides. On the procedure: (§1) Mouse blood was obtained through retro-orbital sinus puncture, mixed with anti-coagulant heparin buffer (5 UI/ml), and collected on citrated tubes. Blood diluted 1:1 with PBS (Gibco-Life Sciences) was placed onto histopaque-1083 (Sigma) density gradients for centrifugation (600 g, 25 minutes). Erythrocyte pellets were resuspended, washed in DMEM and stored for up to 4 hours at room temperature. Erythrocyte surface CD47 expression was assessed by FACS. Fresh RBC were washed and blocked with PBS-BSA 5% for 30 min and immunoreacted with mouse-specific fluoroisothiocyanate (FITC)-coupled anti-CD47 monoclonal antibody (clone mIAP301; BD Biosciences, Le Pont de Claix, France), or matched irrelevant IgG2aκ isotype for 45 min in 2% PBS-BSA. Erythrocytes were washed in PBS-BSA 2% prior to FACS analysis. Erythrocyte phenotypes were analyzed by […] electronic microscopy. Briefly, mouse erythrocytes were fixed with glutaraldehyde 1% and paraformaldehyde 4%, dehydrated and embedded in Epon™ epoxy resin. Sections contrasted with uranyl acetate and lead citrate were examined with a JEOL JEM 1010 microscope. Average apparent spicule number was determined by direct counting in 80 to 120 cells per condition.
(§2) To trigger MP shedding, erythrocyte were suspended in polyvinylpyrrolidone (31 mPa.s) and placed in a rotating type LORCA ektacytometer (R&R Mechatronics, Hoorn, The
(§3) Netherlands) in the absence or presence of TSP1 (25 μg/ml), or TSP1-derived peptides 4N1-1 or 4N1-2 (25 μM). Shear rate was applied according to the builder's program (1500 s^−1; 2.5 minutes). Erythrocytes were immediately separated and supernatant PS^+ MP quantified by FACS. Concentrated MP stocks were generated from 10 to 20 ml of supernatant from erythrocytes suspended in RPMI-1640 (4.10^6/ml) and treated with 4N1-1. Suspensions were centrifuged at 400 g for 15 min to discard cells, and ultracentrifuged at 20500 g for 45 min to pellet MP, which were resuspended in filtered (0.2 μm) DMEM and stored at −80° C. MP concentrations were determined as previously described (20). Briefly, MP were labeled with 2 μl FITC-conjugated annexin-V (Roche Diagnostics, France) diluted in 100 μl reaction buffer with 5 mM CaCl2. CaCl2 was omitted in negative controls. MP were analyzed on a Coulter EPICS XL flow cytometer (Beckman Coulter). MP were identified in forward light scatter (FSc) and side-angle light scatter (SSc) intensity dot plots set at logarithmic gain, as events of 0.1-1 μm in diameter. MP-size events were analyzed in FL/FSC fluorescence dot plots to determine annexin-V labeling. MP concentration was determined with respect to calibrated fluorescent microbeads (Flowcount). To determine erythrocyte origin, MP were double labeled with rat PE-Cy7-coupled mouse-specific anti-Ter119 antibody (Biolegend via Ozyme, France), or matched irrelevant IgG2bκ isotype.

For the next assay, the system named is SAD mouse erythrocytes. Kind of assay: Echinocyte conversion and MP shedding by isolated erythrocytes (LORCA ektacytometer, microscopy, FACS), SAD. Format: cell-based. The following applies: for raise in MP shedding in SAD erythrocytes: peptides 25 μM, versus control peptides. As for the experimental part: as §1, §2, §3
The subject of a further assay is SAD transgenic mice. Description: Vaso-occlusive crises in mice: renal artery blood flow velocity by Echo-Doppler, cardiac output, renal histology. The class given is in vivo, mouse. The following applies: SAD RBC MP pre-incubated with annexin-V and washed, 300.10^3 MP/mouse. As for the experimental part:
We characterized the induction of VOC in SAD transgenic mice (18, 19) according to our previously published method, in response to the intravenous administration of TSP1 (1 mg/kg), TSP1-derived peptides 4N1-1 or 4N1-2, or purified erythrocyte MP. Briefly, mice were anesthetized with isoflurane and monitored to prevent any cardiorespiratory depression. Mice were shaved and placed in the decubitus position on a heating blanket (38° C.). We used a Vivid 7 echograph (GE Medical Systems®, Horten, Norway) equipped with a 12-MHz linear transducer (12 L). The ultrasound probe was placed on the left side of the abdomen for examination of renal arteries, or in left lateral decubitus for cardiac output acquisition with transducer on the chest. Data were transferred on-line to an EchoPAC ultrasound image analysis workstation (GE Medical Systems®). Two-Dimensional ultrasound imaging of the abdomen in left-sided longitudinal B-mode allowed kidney width and height measurements. Color-coded blood flow detection by Doppler enabled renal arteries to be localized. A pulsed Doppler spectrum was recorded and peak systolic, end-diastolic and time-average mean BFV were measured in the renal artery, with Doppler beam angle correction. To calculate cardiac output, spatial flow profiles were analyzed in parasternal long-axis B-mode images of the pulmonary artery and BFV were measured as above. The following formula was applied: CO=[(V^mean·60)·(π·(Dpa/2^2)], where CO is the cardiac output in ml/minute, V^mean is the mean time-averaged BFV in cm/s and Dpa is the pulmonary artery diameter in cm. Kidney sizes and BFV were determined by the same investigator, as means of 5 to 8 measurements. Repeatability for cardiac output measurements was verified. We controlled and confirmed that kidney size was similar between SAD and wild type mice. After sacrifice, kidneys were dissected, dehydrated, mounted in paraffin, sectioned and stained by Masson trichrome. Vascular congestion was observed by phase-contrast microscopy, as large erythrocyte aggregates occluding kidney capillaries and larger vessels. In some experiments, TSP1 (1 mg/kg) or control BSA (1 mg/kg) were injected. After 5 minutes, mice were terminally anesthetized by pentobarbital overdose. Whole blood was collected through cardiac puncture, centrifuged (400 g, 15 minutes) to eliminate erythrocytes and leukocytes, and double centrifuged (12500 g, 5 minutes) to eliminate platelets with minimal activation. Supernatants were considered platelet-free plasma (PFP). Circulating MP were quantified by FACS.
We evaluated the concept that TSP1 influences VOC during SCD in vivo. We used SAD transgenic mice that express a mutated human hemoglobin β-chain known to cause sickle cell formation and sensitivity to VOC (18, 19).

The mark [3] stands for this setting: endothelial NOS blocked, L-NAME 100 μM, enantiomer D-NAME as control.
Setting [4] is: endothelial PKC activity inhibited, 1 μM.
Where [5] appears, read: scanning electron microscopy, after peptide treatment.

Entries after “also recorded” stand apart in the source; their conditions may differ.

With `c1ccc2c(c1)[I+]c1ccccc1-2` [DPI], the “ROS generation induced by SAD RBC MP” value in assay [1] (endothelial NADPH oxydase blocked, 10 μM, 30 minutes) is recorded as “prevented”.
Take `COC(=O)[C@H](N)CCCN=C(N)N[N+](=O)[O-]` [D-NAME]: in assay [1] (setting [3]), the “ROS generation induced by SAD RBC MP” value is listed as “had no effects”.
With `COc1cc(C(C)=O)ccc1O` [apocynin], the “ROS generation induced by SAD RBC MP” value in assay [1] (endothelial NADPH oxydase blocked, 100 μM, 30 minutes) was “prevented”.
Consider `Cn1cc(C2=C(c3cn(CCCSC(=N)N)c4ccccc34)C(=O)NC2=O)c2ccccc21` [Ro-31-8220], for which, in assay [1] (setting [4]), the “ROS generation induced by SAD RBC MP” value is listed as “prevented”.
As for “4N1-1: Synthetic TSP1 carboxyterminal peptide RFYVVMWK (SEQ ID NO:1), CD47 agonist (4N1-1)”, the “effects on circulating PS+ MP after injection of the peptide” value in the assay with SAD mice is listed as “comparable to whole TSP1”. Also, in assay [2] (peptide 25 μM), the “echinocytosis: change in wild type echinocytes” value is on record as “doubling”. For the same molecule, in assay [2] (setting [5]), the “spicule numbers in healthy wild type erythrocytes” value is reported as “not in healthy wild type erythrocytes”. Besides, in the assay on SAD mouse erythrocytes (SAD erythrocytes, TSP1 or peptide), the “effect on sickle cells” value was “did not affect sickle cells”. Also, in the assay with SAD mouse erythrocytes (setting [5]), the “increase in spicule numbers in SAD RBC” value turned out to be 20%. Further, the “increase in SAD echinocytes” value with SAD mouse erythrocytes (under shear, TSP1 (25 μg/ml) or peptide (25 μM), vs control) came to 50%.
`Cn1c2ccccc2c2c3c(c4c5ccccc5n(CCC#N)c4c21)C(=O)NC3` [Gö-6976]: in assay [1] (setting [4]), the “ROS generation induced by SAD RBC MP” value is reported as “prevented”.
Regarding `COC(=O)[C@@H](N)CCCNC(=N)N[N+](=O)[O-]` [L-NAME], in assay [1] (setting [3]), the “ROS generation induced by SAD RBC MP” value is “entirely inhibited”.
“4N1-2: Synthetic truncated control peptide RFYVVM (SEQ ID NO:2) (4N1-2)”: the “increase in MP shedding in wild type erythrocytes” value in assay [2] is on record as “no effect”. For the same molecule, the “raise in MP shedding in SAD erythrocytes” value with SAD mouse erythrocytes is “no effect”.
On to “4NGG: Mutated control peptide RFYGGMWK (SEQ ID NO:3) devoid of the VVM motif (4NGG)”, for which, in assay [2], the “increase in MP shedding in wild type erythrocytes” value is given as “no effect”. Also, in the assay with SAD mouse erythrocytes, the “raise in MP shedding in SAD erythrocytes” value is on record as “no effect”.

B1: annexin-V: Recombinant protein that binds externalized phosphatidylserine in a calcium dependent manner (protein, UniProt P08758 2-320, looked up)
Annexin A5: AQVLRGTVTDFPGFDERADAETLRKAMKGLGTDEESILTLLTSRSNAQRQEISAAFKTLFGRDLLDDLKSELTGKFEKLIVALMKPSRLYDAYELKHALKGAGTNEKVLTEIIASRTPEELRAIKQVYEEEYGSSLEDDVVGDTSGYYQRMLVVLLQANRDPDAGIDEAQVEQDAQALFQAGELKWGTDEEKFITIFGTRSVSHLRKVFDKYMTISGFQIEETIDRETSGNLEQLLLAVVKSIRSIPAYLAETLYYAMKGAGTDDHTLIRVMVSRSEIDLFNIRKEFRKNFATSLYSMIKGDTSGDYKKALLLLCGEDD
Regarding B1, the entries for the “VOC parameters after injection of annexin-V-saturated SAD RBC MP” value with SAD transgenic mice and in the assay with SAD transgenic mice (listed as Annexin-V) were “failed to modify VOC parameters” and “abrogated the induction of VOC”, respectively. Further, in assay [1] (MP PS previously saturated with recombinant annexin-V, 1 μg/ml for 1 hour), the “ROS generation induced by SAD RBC MP” value is on record as “entirely inhibited; also recorded: prevented”.
